This is an account of results in PubChem BioAssay AID1645862 (Buhrlage Lab, Dana-Farber Cancer Institute and Novartis …, 2021).

As usually defined, the IC50 is the point on the concentration scale where inhibition reaches its midpoint. For orientation: pIC50 means the IC50 on a negative log10 scale, so that one unit is a factor of ten.

pIC50: −log10 of the molar value. Activity calls are given as the source filed them. How the calls were made is not given here.

The target of this assay is Ubiquitin carboxyl-terminal hydrolase 8 (Homo sapiens) (UniProt P40818). As to the kind of experiment: Ubiquitin-specific protease 8 inhibitors, concentration-effect, biochemical, validation of initial actives (AID 1645862).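 Further: potency reflects inhibition of USP8 cleavage of a ubiquitin rhodamine substrate.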 As to conditions: recombinant USP8 deubiquitinase activity assay.
Sequence of Ubiquitin carboxyl-terminal hydrolase 8 (Homo sapiens) (P40818 whole entry, looked up): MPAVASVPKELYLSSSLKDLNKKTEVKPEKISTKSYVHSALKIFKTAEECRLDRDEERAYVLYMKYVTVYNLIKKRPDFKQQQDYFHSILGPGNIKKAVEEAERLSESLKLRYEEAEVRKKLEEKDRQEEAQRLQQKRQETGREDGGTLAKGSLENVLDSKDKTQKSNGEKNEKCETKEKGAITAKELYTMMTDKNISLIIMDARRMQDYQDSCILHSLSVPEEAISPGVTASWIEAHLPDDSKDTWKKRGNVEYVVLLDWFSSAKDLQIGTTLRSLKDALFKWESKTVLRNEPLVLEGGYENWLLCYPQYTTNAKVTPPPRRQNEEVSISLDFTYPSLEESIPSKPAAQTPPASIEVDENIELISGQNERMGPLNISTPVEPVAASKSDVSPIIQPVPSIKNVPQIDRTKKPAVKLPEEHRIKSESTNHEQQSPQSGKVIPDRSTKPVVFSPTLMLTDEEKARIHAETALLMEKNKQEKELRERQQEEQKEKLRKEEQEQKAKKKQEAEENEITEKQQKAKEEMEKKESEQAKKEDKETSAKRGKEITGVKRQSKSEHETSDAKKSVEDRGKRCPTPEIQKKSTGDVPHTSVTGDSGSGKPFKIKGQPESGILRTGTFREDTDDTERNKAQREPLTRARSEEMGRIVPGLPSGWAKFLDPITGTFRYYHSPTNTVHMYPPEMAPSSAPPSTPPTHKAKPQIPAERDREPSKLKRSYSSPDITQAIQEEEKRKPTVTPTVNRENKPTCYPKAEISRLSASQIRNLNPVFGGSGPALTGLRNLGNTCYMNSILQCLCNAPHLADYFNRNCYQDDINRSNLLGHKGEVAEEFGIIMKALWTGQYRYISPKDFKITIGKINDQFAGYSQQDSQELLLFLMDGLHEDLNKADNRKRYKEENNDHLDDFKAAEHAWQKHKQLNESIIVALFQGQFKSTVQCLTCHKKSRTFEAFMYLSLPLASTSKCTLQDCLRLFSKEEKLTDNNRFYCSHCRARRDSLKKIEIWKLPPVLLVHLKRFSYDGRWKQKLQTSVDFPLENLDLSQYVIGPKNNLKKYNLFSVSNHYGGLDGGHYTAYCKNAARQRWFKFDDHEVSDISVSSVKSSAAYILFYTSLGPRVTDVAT
On to `COc1ccccc1N1CCN(C(=O)c2ccc3c(=O)n(CCc4ccccc4)c(=O)[nH]c3c2)CC1`, for which the IC50 is > 40 µM (inactive).
Consider `COc1ccc(-c2cc3nc([C@H](C)NC(=O)Cc4ccccc4C)nn3cn2)cc1`, for which the IC50 was > 40 µM (inactive).
Take `COc1ccc2c(c1)c(=O)c(S(=O)(=O)c1ccc(F)cc1)cn2Cc1cccc(F)c1`: the IC50 was > 40 µM (inactive).
Still for that read-out and setting: next, `O=C(CCCCn1c(=O)c2ccccc2n(CC(=O)Nc2ccc3c(c2)OCCO3)c1=O)NCc1ccco1`: > 40 µM (inactive).
Turning to `Cc1ccccc1NC(=O)Cn1c(=O)n(-c2ccc(CC(=O)NCCc3ccccc3)cc2)c(=O)c2sccc21`, the pIC50 was 4.43.
In the case of `Cc1cc(CN2CCCCC2c2cc(=O)n3ccnc3[nH]2)no1` (stereo unspecified), the IC50 is > 40 µM (inactive).
Still for that read-out and setting: next, `O=C(COC(=O)c1ccc(NS(=O)(=O)c2ccc(F)c(F)c2)cc1)Nc1ccc(OCc2ccccc2)cc1`: > 40 µM (inactive).
Same read-out and setting: next, `CC(NC(=O)c1ccccc1)c1nc2ccccc2n1CC(=O)Nc1ccc2c(c1)OCO2` (stereo unspecified): > 40 µM (inactive); `Cc1c(-c2nn3c(-c4ccco4)nnc3s2)cccc1[N+](=O)[O-]`: > 40 µM (inactive); `COc1ccc(/C=C/C(=O)Nc2cccc(S(=O)(=O)Nc3ccccc3Cl)c2)c(OC)c1`: > 40 µM (inactive).
The same measure, in the same setting: to `CN(C)c1ccc(S(=O)(=O)N2CCCCC2)cc1NC(=O)COc1ccccc1` belongs > 40 µM (inactive); to `CCOc1ccc(-n2ccnc(SCC(=O)Nc3ccccc3F)c2=O)cc1`, > 40 µM (inactive).
Turning to `Cc1ccc(Cn2c(C(=O)O)c(CNCc3ccco3)c3ccccc32)cc1`, the IC50 is > 40 µM (inactive).
The same measure, in the same setting: to `Cc1ccc(CS(=O)(=O)c2cn(CC(=O)NCCc3ccccc3)c3ccccc23)cc1` belongs > 40 µM (inactive).
Consider `CO/C=C/C(=O)c1cc2cnc3c(=N)cc(NC(C)=O)c([nH]1)c23`, for which the pIC50 is 5.84.
Take `CC(C)NC(=O)Cn1ccn2nc(-c3ccc(Cl)cc3)cc2c1=O`: the IC50 is > 40 µM (inactive).
As for `Cc1nc2cc(-c3noc(-c4cccc5[nH]ccc45)n3)ccc2o1`, the IC50 was > 40 µM (inactive).
Turning to `CC1(C(=O)NCc2ccc(F)cc2)Cn2nc(-c3ccco3)cc2C(=O)N1c1ccc2c(c1)OCCO2` (stereo unspecified), the IC50 was > 40 µM (inactive).
As for `O=C(CSc1nc2ccccc2[nH]1)Nc1ccc2c(c1)OCCO2`, the IC50 is > 40 µM (inactive).
Still for that read-out and setting: to `Cc1ccc(N2CC(C(=O)Nc3cccc(-c4noc(C)n4)c3)CC2=O)cc1` (stereo unspecified) belongs > 40 µM (inactive).
As for `COc1ccc(-c2nc(SCC(=O)Oc3c(C)cccc3C)n3[nH]c(=O)cc3n2)cc1`, the pIC50 was 4.75.
On the same count and under the same terms, next, `CC1=CC(=O)C(C2=C(O)C(=O)C(C)=CC2=O)=C(O)C1=O`: 5.04.
Regarding `CCC(C(=O)C(C)C(O)C(C)CCc1ccc(C)c(O)c1C(=O)O)C1OC(CC)(C2CCC(O)(CC)C(C)O2)CC1C` (stereo unspecified), the IC50 was > 40 µM (inactive).
Take `CCCCCCCCCC(CCCCCCCCCC(=O)O)O[C@H]1O[C@@H](COC(C)=O)[C@H](O)[C@@H](O)[C@H]1OC(=O)CC(=O)O` (stereo partly specified): the IC50 was > 40 µM (inactive).
Still for that read-out and setting: next, `O=C(Nc1ccccc1C(F)(F)F)c1cccc(S(=O)(=O)Nc2cc(C(F)(F)F)ccc2Cl)c1`: > 40 µM (inactive).
Still for that read-out and setting: to `COc1ccc(CCC(=O)Nc2nnc(C3CC(=O)N(c4ccc(C)cc4)C3)s2)cc1` (stereo unspecified) belongs > 40 µM (inactive).
Take `O=C(NC1(O)C(=O)c2ccccc2C1=O)c1ccc(-c2csnn2)cc1`: the pIC50 is 5.25.
Take `O=C(CCn1c(=O)c2sccc2n(CC(=O)OCc2ccccc2)c1=O)NCc1ccc2c(c1)OCO2`: the IC50 is > 40 µM (inactive).
Same read-out and setting: next, `COC(=O)c1ccc(N2CCN(C(C)=O)CC2)c(NC(=O)COc2ccc([N+](=O)[O-])cc2)c1`: > 40 µM (inactive).
Regarding `Cc1cccc(NC(=O)c2noc3c2CCc2sccc2-3)n1`, the IC50 is > 40 µM (inactive).
Regarding `CSc1ccccc1C(=O)Nc1sc2c(c1C(N)=O)CCC(C)C2` (stereo unspecified), the IC50 is > 40 µM (inactive).
On the same count and under the same terms, to `CC(C)=CCC/C(C)=C/COc1ccc(/C=C2\C(=O)N(O)[C@@H](C)C(=O)N2O)cc1` belongs > 40 µM (inactive).
Still for that read-out and setting: to `O=C(Cn1cc(C(=O)C(F)(F)F)c2ccccc21)N1CCc2ccccc21` belongs > 40 µM (inactive).
On the same count and under the same terms, to `COc1ccc(NC(=O)[C@H](C)NC(=O)c2cc3c(OC)cccc3[nH]2)cc1Cl` belongs > 40 µM (inactive).
Regarding `Cc1noc(/C=C/Nc2cc(Cl)cc(Cl)c2)c1[N+](=O)[O-]`, the IC50 is > 40 µM (inactive).
For `Cc1ccc(NC(=O)Nc2ccc(C)n(CC(=O)Nc3cc(C)ccc3C)c2=O)cc1`, the IC50 is > 40 µM (inactive).
Still for that read-out and setting: next, `Cn1c(COc2cccc3cccnc23)nnc1SCC(=O)c1ccc(Cl)cc1Cl`: > 40 µM (inactive).
With `Cc1sc(NC(=O)Cn2nnc3ccccc32)nc1-c1ccc2c(c1)CCN2C(=O)c1ccccc1F`, the IC50 was > 40 µM (inactive).
On to `CCOC(=O)CCc1c(C)c2ccc(OCC(=O)c3ccc(-c4ccccc4)cc3)c(C)c2oc1=O`, for which the IC50 is > 40 µM (inactive).
On the same count and under the same terms, to `Cc1cccc(NC(=O)CSc2nc3c(cc2C#N)C(=O)CCC3)c1` belongs > 40 µM (inactive); to `COCCCN1CCS(=O)(=O)c2c(Cl)c(F)nc(Oc3ccccc3F)c21`, > 40 µM (inactive).
`NC(=O)c1ccccc1NC(=O)COc1ccc2c(c1)oc(=O)c1ccccc12`: the pIC50 was 4.49.
With `O=C(COc1ccc(N2CC(C(=O)NCc3ccccc3)CC2=O)cc1)Nc1ccc(F)cc1` (stereo unspecified), the IC50 was > 40 µM (inactive).
As for `CC[C@H](C)[C@H](NC(=O)[C@H]([C@@H](C)CC)N(C)C(C)=O)C(=O)N[C@H](C(=O)N[C@@H](CC(C)C)C(=O)C1(C)CO1)[C@@H](C)O` (stereo partly specified), the IC50 was > 40 µM (inactive).
Still for that read-out and setting: next, `O=C(C1=CSCCO1)N1CCc2ccccc2C1`: > 40 µM (inactive); `Cc1cc(N2CCN(c3ncccn3)CC2)nc2ccc(NC(=O)Cn3nc([N+](=O)[O-])c(Br)c3C)cc12`: > 40 µM (inactive); `CCc1cccc(CC)c1NC(=O)COC(=O)c1cc2cccc(OC)c2oc1=O`: > 40 µM (inactive).
For `CC(=O)O[C@@H](C/C=C(\C)C(=O)O)[C@@H](C)[C@H]1C[C@H](OC(C)=O)[C@@]2(C)C3=CC[C@H]4C(C)(C)[C@H](O)CC[C@]4(C)C3=CC[C@]12C`, the IC50 was > 40 µM (inactive).
For the compound `Nc1c(-c2nc(-c3ccccc3Cl)no2)nnn1-c1ccc(Cl)cc1`, the pIC50 was 5.32.
As to `Cc1ccc(OCc2nc3ccccc3n2CC(=O)Nc2ccc(C(F)(F)F)cc2)cc1`, the IC50 was > 40 µM (inactive).
Still for that read-out and setting: to `CC(C)=CCc1c(O)cc2c(c1C)OC(=O)c1c(C)c(Cl)c(O)c(CO)c1O2` belongs > 40 µM (inactive); to `COCCNC(=O)Cn1c(=O)n(Cc2ccc(C(=O)NCc3ccc(C)cc3)cc2)c(=O)c2ccccc21`, > 40 µM (inactive); to `COc1cc(OC)c2c(c1)C(=O)C1=C(COC(C)(O)C1)C2=O` (stereo unspecified), > 40 µM (inactive).
On to `CSc1nc(N)c2c(n1)N[C@H]1OC[C@H](O)[C@H](O)[C@H]1N2`, for which the IC50 is > 40 µM (inactive).
For `CCCCCCCC1OC(=O)Cc2cc(O)c(O)c(O)c21` (stereo unspecified), the pIC50 was 5.06.
`Cc1nn(-c2ccccc2)c2c1N=C1C(Cl)=CC(Cl)=CN1C21C(=O)Nc2ccccc21` (stereo unspecified): the IC50 was > 40 µM (inactive).
